# From patent US6714815B2, “Method for the iontophoretic non-invasive determination of the in vivo concentration level of an inorganic or organic substance” (The Regents of the University of California, priority 1988, dated 2004)
# Structures can show the parent of a compound that is named as a salt.
# Tests used:
# [1] = Experimental: FIG. 5—The iontophoretic sampling was extended to another neutral bioactive molecule: ethanol.
# An identical protocol to that employed for glucose experiments is followed. The only difference being in the concentration of ethanol in the dermal side. A concentration of 17 mM was used as this corresponds to a 0.08% solution, the maximum blood alcohol level legally allowed.
# Radioactivity was again used to measure the extracted ethanol. The dermal side using radioactive ethanol, [1-14C]
# [2] = forearm of a person; compared with in vitro case
# [3] = remark: listed apart in the source
# Experimental: Drugs—Clonidine HCl (Sigma Chemical Co., St. Louis, Mo.); Clonidine-HCl (phenyl-4-^3H) of specific activity 90 mCi/mg (Amersham, Arlington Heights, Ill.). […] The non-labelled drugs were dissolved in deionized water to form solutions of 1 mg/ml, with enough labelled drug to achieve an activity of approximately […].
# Skin (13)—Full-thickness skin, freshly excised from 11-15 week old female hairless mice (strain Skh:HR-1, Simonsen Laboratory, Gilroy, Calif.).
# Testing of the Modeling Cell—The diffusion cell 10 was tested in three ways:
# (1) Leakage tests (without current) using dye and silicone rubber than skin; (2) leakage tests using dye and skin (without current); and (3) iontophoretic tests using the drug solutions and skin (with and without current). Procedures (1) and (2) were evaluated by visually inspecting the cell. For procedure (3), 0.6 ml of labelled drug solution was placed in chamber 16A, 0.6 ml of buffered saline was pipetted into chamber 16C, and a constant current of 0.63 mA/cm^2 (with the voltage limited at 9 V) was imposed between the electrodes in the two chambers. The activity of the solutions in chambers 16A and 16C was determined before and after iontophoresis. The activity of the skin 13 and of the samples taken from the receptor chamber was determined post-experimentally. Each experiment lasts approximately 24 hours, ±2 hours, with samples collected hourly. Receptor fluid 17 was magnetically stirred (27), and the collection flow rate was 10 ml/hr. Each procedure was, repeated three times.
# [4] = In-vitro iontophoretic delivery of P.S.O.S. in the diffusion cell; format: in vitro ADME
# Experimental: (b) P.S.O.S. (Potassium Sucrose Octa Sulfate) P.S.O.S., 0.6 ml of 1.5 mg/ml solution in a boric buffer is placed in chamber 16A and boric acid buffer alone is placed in chamber 16C of FIGS. 1, 2 or 3. Using a direct current of 0.5 mA (0.65 mA/cm^2) transport of P.S.O.S is observed up to 5 μg/hr.
# [5] = female, Skh:HR-1 hairless, mouse, 1 mg/ml
compound,measurement,setting,value
CCO [ethanol],amount of ethanol extracted iontophoretically,"[1]; ethanol 17 mM on the dermal side, compared with glucose",far greater than that obtained with glucose
same,passive flux,"[1]; ethanol 17 mM on the dermal side, no current",large passive flux
same,cathodal versus anodal concentration,[1]; preliminary experiments,cathodal concentration is greater than anodal
same,metabolism during iontophoretic sampling,[1]; preliminary experiments,does not seem to be metabolized
"Clc1cccc(Cl)c1N=C1NCCN1 [clonidine-HCl, Clonidine HCl]",amount of clonidine sampled,[2],comparable to that observed in the in vitro case
same,drug in the buffered saline of chamber 16C,[3],no drug was found
same,mean rate of diffusion into the receptor phase (passive transport rate),[3]; [5],0.05 μg/cm^2/hr
same,rate of penetration through the skin,[3]; [5],15.0 μg/cm^2/hr
same,labelled drug detected in the buffered saline of chamber 16C,"[3]; female, Skh:HR-1 hairless, mouse, 20 h, 1 mg/ml",5 µg
"O=S(=O)([O-])OC[C@H]1O[C@@](COS(=O)(=O)[O-])(O[C@H]2O[C@H](COS(=O)(=O)[O-])[C@@H](OS(=O)(=O)[O-])[C@H](OS(=O)(=O)[O-])[C@H]2OS(=O)(=O)[O-])[C@@H](OS(=O)(=O)[O-])[C@@H]1OS(=O)(=O)[O-].[K+].[K+].[K+].[K+].[K+].[K+].[K+].[K+] [P.S.O.S, Potassium Sucrose Octa Sulfate]",transport of P.S.O.S,"[4]; direct current of 0.5 mA (0.65 mA/cm^2), 0.6 ml of 1.5 mg/ml in boric buffer in chamber 16A",up to 5 μg/hr
same,P.S.O.S transferred,"[4]; same experimental configuration, printed 'with a current'",only a few nanograms
